For data set [1] the following is noted: in vivo; cited from earlier work.
Data set [2] concerns interstitial lung edema. Briefly: Sephadex model in the rat: lung edema after Sephadex bead instillation, glucocorticosteroid instilled in left lung lobe. Conditions: for ED50: Rattus norvegicus, read-out: ED50 left lung lobe (required glucocorticosteroid dose to reduce the edema by 50%); for Selectivity ratio ED50 right lung / ED50 left lung: instillation into left lung lobe, higher = more selective for application site. The format is in vivo, Sprague-Dawley rats. The source says:
The selectivity for anti-inflammatory effect at the application site in the lung has been investigated in a model system in the rat after intrabronchial instillation of the glucocorticosteroid.
Instillation of Sephadex beads into rat lung leads to bronchial and alveolar inflammation. This provokes interstitial lung edema, which increases the lung weight and the inflammation can be graded as the increase of the lung weight compared to a vehicle-instilled control group. The lung edema formation can be counteracted by pretreatment with glucocorticosteroids, preferably the local administration as intrabronchial installation or as inhalation. Ideally, an anti-inflammatory action should be obtained only at the site of glucocorticosteroid application in the lung but not outside this area, as this in long term treatment can lead to therapy limiting systemic side effects.
(§1) The differentiation between glucocorticosteroid action in the treated lung region and outside this area has been tested by the following test protocol. Sprague-Dawley rats (225 g) were slightly anesthetized with ether and the glucocorticosteroid test preparation in a volume of 0.5 ml/kg was instilled into just the left lung lobe. […] Thirty minutes later, a suspension of Sephadex (5 mg/kg in a volume of 1 ml/kg) was instilled in the trachea well above the bifurcation so that the suspension reached both the left and right lung lobes. Twenty hours later the rats were killed and the left and right lung lobes were dissected out and weighed separately. Also the thymus weight was recorded. Control groups got vehicle instead of glucocorticosteroid preparation and saline instead of Sephadex suspension to determine the weight of non-drug protected Sephadex edema and the normal lung weight, respectively. For each glucocorticosteroid preparation at least 3 doses within the range 0.01-10 mg/kg and with each ≥6 parallels/dose were tested. The glucocorticosteroids were suspended in a vehicle of CMC-Na 0.75%, Tween 80 0.04%, and 0.7% NaCl ad 100%.
For a strict local anti-inflammatory treatment of airway diseases the ideal profile of a compound is that it should counteract the inflammation in the locally treated left lung lobe, but not in the right lung half, which is anticipated to be reached by glucocorticosteroid first via the systemic circulation (after absorption from the left lung). The ratio between the required ED50 's (doses reducing the edema by 50%) in the right and left lung halves, respectively, can be used as a parameter for estimation of the selective activity for the application site. For an ideal glucocorticosteroid this selectivity ratio should be high.

In data set [3] the test system is thymus. Briefly: Thymus weight recorded in the Sephadex model (systemic effect). The format is in vivo, Sprague-Dawley rats. The conditions noted are these: for Thymus involution % (dose mg/kg): relative to Sephadex control group. As for the experimental part: as §1
The conditions of data set [4]: cited from earlier work; for Unwanted GCS actions within the general circulation (in words): highest of the recommended doses for inhalation; for Safety margin (in words): inhaled GCS, highest recommended doses for inhalation.
For data set [5] the following is noted: cited from earlier work; for Plasma half life: after absorption of inhaled GCS; for Site of inactivation (in words): after absorption.
For data set [6] the following is noted: compared with budesonide or BDP; cited from earlier work.
Where [7] appears, read: intrabronchial instillation into left lung lobe 30 min before Sephadex, lungs weighed 20 h later.

The structures appear in SMILES notation. Where “and” joins values, the source holds several entries; their conditions need not be identical. Equal entries are not always repeated. Where two headings read alike, the source gives them in different places.

A word on the ED50: it is the dose at which the effect has come halfway, by size or by number of responders.

For the molecule `CCCC1O[C@@H]2C[C@H]3[C@@H]4CCC5=CC(=O)C=C[C@]5(C)[C@H]4[C@@H](O)C[C@]3(C)[C@]2(C(=O)CO)O1` (some centres unmarked) [Budesonide], in data set [1], the “Selectivity for the application within airways (in words)” value was “low selectivity”. Moreover, in data set [2] (setting [7]), the ED50 was found to be 0.2 mg/kg. For the same molecule, the “Selectivity for activity in the locally treated left lung lobe (in words)” value in data set [2] (compared with budesonide and FCB) is given as “does not reach any selectivity for the application site in lung”. Further, the “Selectivity ratio ED50 right lung / ED50 left lung” value in data set [2] is ~ 1.5 and 1.4. Moreover, in data set [3] (dose 0.3 mg/kg), the “Thymus involution % (dose mg/kg)” value is on record as 22%. Besides, in data set [4], the “Unwanted GCS actions within the general circulation (in words)” value is “unwanted GCS actions within the general circulation have been reported” and the “Safety margin (in words)” value is listed as “rather narrow safety margin”. Besides, in data set [5], the Plasma half life is no less than 2 h and the “Site of inactivation (in words)” value is “inactivated mainly in the liver”.

As to `CCC[C@@H]1O[C@@H]2C[C@H]3[C@@H]4C[C@H](F)C5=CC(=O)C=C[C@]5(C)[C@@]4(F)[C@@H](O)C[C@]3(C)[C@]2(C(=O)C(=O)OC)O1` [Example 1, methyl (22R)-16α,17α-butylidenedioxy-6α, 9α-difluoro-11β-hydroxy-3,20-dioxopregna-1,4-diene-21-oate], the ED50 in data set [2] (setting [7]) came out at 1.5 mg/kg. Also, the “Selectivity ratio ED50 right lung / ED50 left lung” value in data set [2] was 6.0. In addition, in data set [3] (dose 10 mg/kg), the “Effect on thymus weight (in words)” value is “do not at all affect the thymus weight” and the “Thymus involution % (dose mg/kg)” value is -3%.

Regarding `CCC[C@@H]1O[C@@H]2C[C@H]3[C@@H]4C[C@H](F)C5=CC(=O)C=C[C@]5(C)[C@@]4(F)[C@@H](O)C[C@]3(C)[C@]2(C(=O)C(=O)OCC)O1` [Example 3, ethyl (22R)-16α,17α-butylidenedioxy-6α,9α-difluoro-11β-hydroxy-3, 20-dioxopregna-1,4-diene-21-oate], the ED50 in data set [2] (setting [7]) was 1.7 mg/kg. The “Selectivity ratio ED50 right lung / ED50 left lung” value in data set [2] came to 5.9. Moreover, the “Thymus involution % (dose mg/kg)” value in data set [3] (dose 10 mg/kg) turned out to be 15%.

In the case of `CCCOC(=O)C(=O)[C@@]12O[C@H](CCC)O[C@@H]1C[C@H]1[C@@H]3C[C@H](F)C4=CC(=O)C=C[C@]4(C)[C@@]3(F)[C@@H](O)C[C@@]12C` [Example 4, n-propyl (22R)-16α,17α-butylidenedioxy-6α,9α-difluoro-11β-hydroxy-3, 20-dioxopregna-1,4-diene-21-oate], the ED50 in data set [2] (setting [7]) was less than 1 mg/kg. Further, the “Selectivity ratio ED50 right lung / ED50 left lung” value in data set [2] is listed as greater than 10. For the same molecule, the “Thymus involution % (dose mg/kg)” value in data set [3] (dose 10 mg/kg) is on record as 6%.

As for `CCC[C@@H]1O[C@@H]2C[C@H]3[C@@H]4C[C@H](F)C5=CC(=O)C=C[C@]5(C)[C@@]4(F)[C@@H](O)C[C@]3(C)[C@]2(C(=O)C(=O)OC(C)C)O1` [Example 5, isopropyl (22R)-16α,17α-butylidenedioxy-6α,9α-difluoro-11β-hydroxy-3, 20-dioxopregna-1,4-diene-21-oate], the ED50 in data set [2] (setting [7]) worked out at 5 mg/kg. For the same molecule, the “Selectivity ratio ED50 right lung / ED50 left lung” value in data set [2] is 10.0. Further, in data set [3] (dose 10 mg/kg), the “Effect on thymus weight (in words)” value is listed as “do not at all affect the thymus weight” and the “Thymus involution % (dose mg/kg)” value was -1%.

As to `CCCCOC(=O)C(=O)[C@H]1[C@H](C)C[C@H]2[C@@H]3C[C@H](F)C4=CC(=O)C=C[C@]4(C)[C@H]3[C@@H](O)C[C@@]21C` [FCB, fluocortin butyl ester], the median effective dose (ED50) in data set [2] (20 h) was determined as 10 mg/kg. Further, in data set [2], the “Selectivity ratio ED50 right lung / ED50 left lung” value is 2-3 and 2.5. Further, the “Potency (in words)” value in data set [6] is on record as “lower potency”. Also, in data set [3] (dose 10 mg/kg), the “Thymus involution % (dose mg/kg)” value came out at 6%. Besides, in data set [5] (compared with budesonide), the “Half life time in plasma (in words)” value was “as long half life time in plasma as budesonide”.

For the molecule `CCC(=O)OCC(=O)[C@@]1(OC(=O)CC)[C@@H](C)C[C@H]2[C@@H]3CCC4=CC(=O)C=C[C@]4(C)[C@@]3(Cl)[C@@H](O)C[C@@]21C` [beclomethasone 17α, 21-dipropionate], in data set [4], the “Unwanted GCS actions within the general circulation (in words)” value is reported as “unwanted GCS actions within the general circulation have been reported” and the “Safety margin (in words)” value is listed as “rather narrow safety margin”. Also, in data set [5], the Plasma half life was no less than 2 h and the “Site of inactivation (in words)” value was “inactivated mainly in the liver”.

Source of the values: patent publication US5215979A, “16,17-acetalsubstituted pregnane 21-oic acid derivatives” (priority 1985, dated 1993).
